Reference: patent US20160235807A1, “AGONISTS OF GUANYLATE CYCLASE USEFUL FOR DOWNREGULATION OF PRO-INFLAMMATORY CYTOKINES” (SYNERGY PHARMACEUTICALS, INC., priority 2013, published 2016)
“Also recorded” adds a separate entry of the source. Bridge positions count the residues as written; N and C are the ends. Square brackets hold non-standard residues; d marks the D form. Peptide text beside a SMILES is read from it.

Legend:
GC-C Receptor [1] = target: T1, GC-C Receptor (Homo sapiens, UniProt P25092); assay: Cyclic GMP stimulation assay in T84 cells; assay type: cell-based
T1 construct: endogenous in cells; host or cells: T84 human colon carcinoma cells
T1 sequence (P25092 24-1073): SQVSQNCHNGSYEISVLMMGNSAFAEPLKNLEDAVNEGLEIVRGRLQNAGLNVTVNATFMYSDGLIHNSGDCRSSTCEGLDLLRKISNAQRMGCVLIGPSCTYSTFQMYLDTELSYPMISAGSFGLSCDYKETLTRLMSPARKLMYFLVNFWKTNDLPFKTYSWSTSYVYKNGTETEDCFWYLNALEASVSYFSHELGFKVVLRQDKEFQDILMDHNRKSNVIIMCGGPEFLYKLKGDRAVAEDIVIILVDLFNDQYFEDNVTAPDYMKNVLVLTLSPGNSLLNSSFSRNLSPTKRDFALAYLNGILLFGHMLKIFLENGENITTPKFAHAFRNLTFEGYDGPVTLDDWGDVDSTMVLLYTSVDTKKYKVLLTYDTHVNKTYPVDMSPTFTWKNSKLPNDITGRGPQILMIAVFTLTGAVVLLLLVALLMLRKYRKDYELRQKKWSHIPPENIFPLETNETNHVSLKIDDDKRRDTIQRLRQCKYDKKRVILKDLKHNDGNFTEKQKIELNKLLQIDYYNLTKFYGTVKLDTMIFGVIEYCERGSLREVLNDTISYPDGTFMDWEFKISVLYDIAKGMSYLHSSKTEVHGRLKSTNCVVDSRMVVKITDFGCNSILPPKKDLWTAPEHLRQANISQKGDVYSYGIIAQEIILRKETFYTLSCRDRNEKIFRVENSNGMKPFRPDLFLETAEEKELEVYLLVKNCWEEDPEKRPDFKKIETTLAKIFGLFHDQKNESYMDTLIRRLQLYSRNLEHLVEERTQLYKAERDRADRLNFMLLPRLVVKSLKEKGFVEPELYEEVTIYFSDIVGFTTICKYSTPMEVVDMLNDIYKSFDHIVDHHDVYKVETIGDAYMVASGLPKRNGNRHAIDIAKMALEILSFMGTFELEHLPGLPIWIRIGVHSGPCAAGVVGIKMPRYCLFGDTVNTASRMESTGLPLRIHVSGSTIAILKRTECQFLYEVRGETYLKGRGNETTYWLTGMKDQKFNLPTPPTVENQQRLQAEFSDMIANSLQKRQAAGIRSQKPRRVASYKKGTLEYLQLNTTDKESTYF
Method: The potency of test peptides to stimulate cGMP synthesis in T84 cells was assayed by a published procedure (Shailubhai et al. 2000). Briefly, confluent monolayers of T-84 cells in 24-well plates were washed twice with 250 μl of DMEM containing 50 mM HEPES (pH 7.4), pre-incubated at 37° C. for 10 min with 250 μl of DMEM containing 50 mM HEPES (pH 7.4) and 1 mM isobutylmethylxanthine (IBMX), followed by incubation with test peptide for 30 min. The medium was aspirated, and the reaction was terminated by the addition of 3% perchloric acid. Following centrifugation, and neutralization with 0.1 N NaOH, the resulting supernatant was used directly for measurements of intracellular cGMP using an ELISA kit (Caymen Chemical, Ann Arbor, Mich.). Results are expressed as pmol of cGMP/mg of protein in the cell extracts.

GC-C Receptor [2] = target: T1, GC-C Receptor; assay: cGMP stimulation assay in T84 cells in the presence of zaprinast (Example 2); assay type: cell-based
Method: Confluent monolayers of T84 cells in 24-well plates were pre-incubated with indicated amounts of SP-333 in the presence of zaprinast for 30 minutes at 37° C. Subsequently, the reaction was terminated by 3% perchloric acid and neutralized with 0.5N NaOH. Intracellular cGMP levels were determined in lysates using a ELISA kit (Cayman Chemical). All samples were analyzed in duplicates. Total protein was quantitated using Pierce BCA protein assay (Thermo Fisher Scientific).

LPS stimulated T84 cells = assay: Cytokines expression analysis (ELISA) in LPS stimulated T84 cells; assay type: cell-based, human; conditions: LPS 10 μg/ml 4 h, then SP-333 16 h
Method: To evaluate the effect of different concentrations of SP-333 on secretion of cytokines (IL-8 and TNF), 12-well plates seeded with 10^5 cells/well were used. At 85-90% confluence, cells were washed with DPBS and treated with or without LPS (10 μg/ml) for 4 h, followed by washing with phosphate buffered saline (PBS). SP-333 at 0, 0.01, 0.1, 1 and 10 μM) together with 500 μM of Zaprinast was added to the treated cells and incubated further for 16 h. The levels of IL-8 and TNF were quantified using human IL-8 and TNF ELISA development kits (Peprotech, Rocky Hill, N.J.) Each ELISA was performed in triplicate with cell-free supernatants from two independent experiments. The protein concentration of each well was assessed by Bio-Rad protein dye detection kit.

[3] = tested on: myeloperoxidase (MPO) activity in colon tissues; assay: MPO activity in lysates from mid-colon tissues, DSS-induced colitis in BDF-1 mice; assay type: in vivo, mouse
Method: A total of 40 samples were chosen for analysis of MPO activity and Ki-67 labeling from the treatment groups that received SP-333, its vehicle control (0.1M phosphate buffer, pH 7) and the reference compound (5-ASA). A random number generator (www.random.org) was employed to select samples from these groups (7 from each of the SP-333-recipient groups and 6 from each of the vehicle and 5-ASA groups).
Myeloperoxidase activity in colonic tissue samples was performed according to the method described (Krawisc et al., 1984). Briefly, the rate of change in absorbance at 450 nm was recorded when 20 μl of tissue extract was incubated with […] of reaction buffer containing 0.26 mg/ml 0-dianisidine and 0.6 μl/ml H2O2. Each reaction was performed in triplicate. The rate of reaction was determined (initial slope) and normalized to protein concentration of sample.

[4] = assay type: in vitro ADME
Method: Plecanatide and SP-333 were incubated in simulated intestinal fluid (SIF) for 6-24 h. Inactivated SIF was used as a control. Following the treatment, samples were analyzed by HPLC by cGMP production in T84 cells. […] The active metabolite, SP-338 was characterized by MS and MS/MS and identified to be formed via removal of carboxyl terminal leucine possibly due to cleavage by carboxypeptidases.

T84 cells [5] = assay: MicroRNA microarray analysis of SP-333 treated T84 cells; assay type: cell-based, human; conditions: T84, 1 μM, 5 h
Method: T84 cells were grown to confluence in 100 mm tissue culture dishes. Cells were treated with pre-determined concentration of SP-333 (1 μM) in the presence of phosphodiesterase inhibitor, zaprinast (500 μM; Sigma Aldrich) for 5 hours. Following treatment, cells were trypsinized and the sample was divided into 3 aliquots. One aliquot was used to determine total cGMP. Another was used for extracting total RNA. The last aliquot was used to extract and purify miRNAs using Norgen's Kit (Norgen BioteK). Briefly, cells were lysed using lysis buffer, passed through a column to remove large RNA, followed by capturing miRNA using microRNA enrichment column. Purified samples were stored at −20° C. MicroRNAs were profiled on a LC Sciences microarray chip and TaqMan Open Array Human miRNA panel.

T84 cells [6] = assay: Quantitative RT-PCR for transcripts in T84 cells; assay type: cell-based, human
[7] = Non-clinical safety and toxicology studies; conditions: rodents and monkeys, oral
[8] = Table 8: downregulated under NF-κB
[9] = Table 8: upregulated under NF-κB

With `CC(C)C[C@@H]1NC(=O)[C@H](CCC(=O)O)NC(=O)[C@@H](NC(=O)[C@H](CCC(=O)O)NC(=O)[C@H](CC(=O)O)NC(=O)[C@H](N)CC(N)=O)CSSC[C@@H]2NC(=O)[C@H](C)NC(=O)[C@H](C(C)C)NC(=O)[C@H](CC(N)=O)NC(=O)[C@H](C(C)C)NC(=O)[C@H](CSSC[C@@H](C(=O)N[C@H](CC(C)C)C(=O)O)NC(=O)CNC(=O)[C@H]([C@@H](C)O)NC2=O)NC1=O` [SP-333, dAsn^1-Asp^2-Glu^3-Cys^4-Glu^5-Leu^6-Cys^7-Val^8-Asn^9-Val^10-Ala^11-Cys^12-Thr^13-Gly^14-Cys^15-dLeu^16] (H-[dN]DECELCVNVACTGC[dL]-OH; disulfide 4-12, 7-15; N-terminus and C-terminus assumed) the “potency to stimulate cGMP in T84 cells” value (GC-C Receptor [1]) was “dose dependent increase in cGMP”, the EC50 (GC-C Receptor [1]; 30 min with peptide, 1 mM IBMX) was 283 nM and the “concentration at which cGMP synthesis approached a plateau” value (GC-C Receptor [2]; FIG. 14) was 1 µM. The cGMP production (GC-C Receptor [2]; FIG. 15) was “enhanced”, the “LPS stimulated production of IL-8” value (LPS stimulated T84 cells) was “concentration dependent reversal” and the “LPS stimulated production of TNF” value (LPS stimulated T84 cells) was “concentration dependent reversal”. The “reduction of MPO activity” value ([3]; SP-333 0.05 mg/kg) was roughly 50%, the MPO activity ([3]; SP-333 0.05 mg/kg, p=0.001 vs DSS group (0.048±0.004)) was 0.024±0.003 units/minute and the “MPO activity compared to DSS treated animals” value ([3]; SP-333 all doses, significant (p<0.05) except 0.5 mg/kg) was “significantly lower; also recorded: considerably reduced; also recorded: much lower”. For the same compound, the “stability in simulated gastric and intestinal fluids” value [4] was “stable”, the miR-133b level (T84 cells [5]; Table 8: downregulated in CRC) was “increase” and the miR-139-5p level (T84 cells [5]; Table 8: downregulated in CRC) was “increase”. The miR-133a level (T84 cells [5]; Table 8: downregulated in CRC, p<0.01) was “increase”, the miR-218 level (T84 cells [5]; [8]) was “increase” and the miR-223 level (T84 cells [5]; [8]) was “increase”. The mir-29b level (T84 cells [5]; [8]) was “increase”, the miR-16 level (T84 cells [5]; Table 8: downregulated under NF-κB, p<0.01) was “upregulated; also recorded: increase” and the miR-15a level (T84 cells [5]; Table 8: downregulated under NF-κB, p<0.05) was “upregulated; also recorded: increase”. For the same compound, the miR-92 level (T84 cells [5]; Table 8: upregulated in CRC) was “decrease”, the miR-26b level (T84 cells [5]; Table 8: upregulated in IBD) was “decrease” and the miR-28-5p level (T84 cells [5]; Table 8: upregulated in IBD) was “decrease”. The miR-98 level (T84 cells [5]; Table 8: upregulated in IBD) was “decrease”, the miR-99a level (T84 cells [5]; Table 8: upregulated in IBD) was “decrease” and the miR-203 level (T84 cells [5]; Table 8: upregulated in IBD) was “decrease”. The miR-362-3p level (T84 cells [5]; Table 8: upregulated in IBD) was “decrease”, the miR-532-3p level (T84 cells [5]; Table 8: upregulated in IBD) was “decrease” and the miR-10a level (T84 cells [5]; [9]) was “decrease”. For the same compound, the miR-27b level (T84 cells [5]; [9]) was “decrease”, the miR-30b level (T84 cells [5]; [9]) was “decrease” and the miR-301 level (T84 cells [5]; [9]) was “decrease”. The miR-199-3p level (T84 cells [5]; Table 8: upregulated under NF-κB and cMyc) was “decrease”, the miR-224 level (T84 cells [5]; Table 8: upregulated under cMyc) was “decrease” and the miR-125b level (T84 cells [5]; p<0.001) was “upregulated”. For the same compound, the let-7i level (T84 cells [5]; p<0.005) was “upregulated”, the miR-494 level (T84 cells [5]; p<0.005) was “reduced” and the “miR-41-3p level (negative regulator of c-Src)” value (T84 cells [5]; p<0.01) was “significantly increased”. For the same compound, the miR-200c level (T84 cells [5]; p<0.01) was “reduced”, the “family of miR-29 level” value (T84 cells [5]; p<0.05) was “upregulated” and the miR-30c level (T84 cells [5]; p<0.05) was “increased”. The miR-92a level (T84 cells [5]; p<0.05) was “reduced”, the “transcripts of cell division cycle 25a (putative c-Myc target gene)” value (T84 cells [6]) was “reduced” and the “transcripts of cyclin D1 (putative c-Myc target gene)” value (T84 cells [6]) was “reduced”. For the same compound, the “transcripts of p53 (putative c-Myc target gene)” value (T84 cells [6]) was “reduced”, the “Expression of Protein Kinase G I and II Transcripts” value (T84 cells [6]; FIG. 15) was “enhanced” and the “decrease in Cyclin D1 expression” value (T84 cells [6]; FIG. 17) was 58%. The “decrease in Survivin expression” value (T84 cells [6]; FIG. 17) was 50%, the “decrease in c-Myc expression” value (T84 cells [6]; FIG. 17) was 92% and the “expression of β-Catenin” value (T84 cells [6]; FIG. 17) was “no effect”. For the same compound, the “decrease in c-Src expression” value (T84 cells [6]; compared to untreated cells, FIG. 16) was 52% and the “non-clinical safety and toxicology” value [7] was “orally-safe drug candidate”.
